Assay results as given in publication PMC11017401, “Novel molecular mechanism driving neuroprotection after soluble epoxide hydrolase inhibition: Insights for Alzheimer's disease therapeutics” (CNS Neuroscience & Therapeutics, 2023).
“Also recorded” adds a separate entry of the source. Marks after values point to notes of the source that are not given here.

Assays:
Human primary astrocytes = assay: T/I/C-induced reactive astrocyte conversion (qPCR, western blot); assay type: cell-based
Procedure: A total quantity of 1 × 10^6 astrocytes isolated from CD1 mouse brain (ScienCell #M1800) or primary human astrocyte (ScienCell #1800) were seeded onto PLL‐coated 6‐well culture plates in astrocyte medium (ScienCell #1831 or #1801).
Astrocytes cultures were incubated in serum‐free condition for 24 h and pretreated for 30 min with UB‐SCG‐51 or p‐eIF2α signal inhibitor (Sigma, SML0843), followed by recombinant T/I/C: IL‐1α (3 ng/mL, Peprotech, Thermo Fisher), TNF‐α (30 ng/mL, R&D), C1q (400 ng/mL, R&D), or PBS for 24 h.
Microglia or astrocyte proteins were extracted by RIPA buffer (Thermo Fisher Scientific Inc.). Extracted proteins were separated by SDS/PAGE and subsequently transferred to nitrocellulose membranes (Bio‐Rad). Membranes were blocked in 3% BSA for 1 h at RT and incubated with primary antibodies (details in resource and reagent Table) overnight at 4°C, followed by incubation with Highly Cross‐Adsorbed Secondary Antibody, Alexa Fluor Plus 800 or 680 (Life Technologies) for 1 h at RT. Membranes visualized on Odyssey (LI‐COR Biosciences).
Microglia or astrocyte total RNAs were isolated by using a Quick‐RNA kit (Zymo Research, Inc.). The concentration of total RNAs was measured using a UV–Vis spectrophotometer (NanoDrop8000, Thermo Fisher Scientific Inc.) and reverse‐transcribed with a high‐capacity cDNA reverse transcription kit (Applied Biosystems). Gene expression was quantified by Fast SYBR green real‐time PCR on a Quantstudio 5 system (Applied Biosystems). Data were analyzed according to the comparative Ct method. Gapdh was used to normalize the amounts of cDNA within each sample.

[1] = test system: PTZ-induced seizures in mice; assay: Pentylenetetrazol (PTZ) seizure test
Procedure: Then, a standard acute test involving the administration of pro‐convulsant PTZ was employed.[32], [33] Furthermore, the PTZ assay is considered highly translatable from mice to humans. In the test, PTZ was administered at 85 mg/Kg by the subcutaneous route and the time to onset of first clonic seizure, an average of clonic seizures, tonic seizure latency and lethality were monitored for 30 min.

[2] = 5 mg/Kg by gavage 1 h prior to PTZ 85 mg/Kg s.c.

O=C(COc1ccc(Cl)cc1)NC1CCC(NC(=O)COc2ccc(Cl)cc2)CC1 (centres unmarked) [SML0843]
C3 gene expression levels in co-treatment (Human primary astrocytes; T/I/C-activated astrocytes, SML0843 + UB-SCG-51, T/I/C alone about 10x control): 2 x fold | C3 gene expression in T/I/C-activated astrocytes, single treatment (Human primary astrocytes; human primary astrocytes, T/I/C 24 h): did not modify; also recorded: did not affect | effect of co-treatment with p-eIF2α signal inhibitor (SML0843) on the UB-SCG-51 effect on C3 gene expression (Human primary astrocytes; human primary astrocytes, T/I/C, SML0843 + UB-SCG-51): partially block

CCC(=O)N1CCC(NC(=O)Nc2ccc(OC(F)(F)F)cc2)CC1 [TPPU]
onset of tonic seizures induced by PTZ vs vehicle ([1]; 5 mg/Kg by gavage): delay the onset of tonic seizures | Average clonic seizure (SEM) [1, 2]: 3.67 (0.56)** | Protected from tonic/total (Mortality) [1, 2]: 5/6^**** | Mean time to clonic seizure latency in seconds (SEM) ([1]; 5 mg/Kg by gavage 1 h prior to PTZ 85 mg/Kg s.c., monitored 30 min): 605.33 (144.78) seconds | average seizure score ([1]; 5 mg/Kg by gavage, group comparison): significant reduction
